Measured values: PubChem BioAssay AID588612 (The Scripps Research Institute Molecular Screening Center, 2011)

Target: Mitogen-activated protein kinase 1 (Homo sapiens) (UniProt P28482)
Experiment: p-MAPK1 abundance shift in treated cells – DLD1 cells, chemiluminescent western blot, powder samples, counter-screen for KLF5 inhibitor project, late-stage follow-up (AID 588612)
Conditions: DLD-1 cells, p-ERK1/2 western blot, 24 h; at 10 µM

Mitogen-activated protein kinase 1 (Homo sapiens), sequence (P28482 whole entry, looked up): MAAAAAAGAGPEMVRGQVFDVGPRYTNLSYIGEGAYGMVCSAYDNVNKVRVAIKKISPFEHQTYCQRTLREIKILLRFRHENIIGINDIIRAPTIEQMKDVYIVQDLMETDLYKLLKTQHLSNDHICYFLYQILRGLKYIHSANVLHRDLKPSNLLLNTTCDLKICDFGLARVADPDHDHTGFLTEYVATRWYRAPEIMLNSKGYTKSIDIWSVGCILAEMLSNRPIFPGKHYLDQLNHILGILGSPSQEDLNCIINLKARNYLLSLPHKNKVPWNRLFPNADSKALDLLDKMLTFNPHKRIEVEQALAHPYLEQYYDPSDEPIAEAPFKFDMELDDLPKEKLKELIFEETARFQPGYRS

Row | fold change | SMILES
1 | 11 | CN(C(=O)COC(=O)/C=C/c1cccc([N+](=O)[O-])c1)C1CCS(=O)(=O)C1 (stereo not drawn)
2 | 9.88 | CN(C(=O)CNC(=O)/C=C/c1cccc(Cl)c1)C1CCS(=O)(=O)C1 (stereo not drawn)
3 | 9.41 | CN(C(=O)CNC(=O)/C=C/c1cccc(Cl)c1)C1CCS(=O)(=O)CC1
